Test: Resistance to rinse by colorimetry (Indigotine dye revelation, chromameter)
Format: physicochemical
Settings: 50 μl on ceramic tile, rinsed 2×10 ml deionized water, Indigotine dye 0.033%
Description: Methodology: 50 μl of each solution in deionized water is deposited on a ceramic tile 2.5 cm×2.5 cm. After drying at room temperature, the treated tiles are rinsed with 2×10 ml deionized water. The revelation is then performed with 200 μl lndigotine dye ex. Wackherr (Cl 73015) at 0.033% in deionized water (3 minutes contact). After removing the excess of dye with 10 ml deionized water and drying of the surface, the coloration intensity is measured with a chromameter (Minolta CR200™). The higher the ΔE, the higher the difference of coloration versus the reference tile (no treatment, no contact with the dye). The coloration is the signal of the persistence of the PHMB on the surface after rinsing.

**Q.** For `CCCCCCCCCCCCOS(=O)(=O)[O-].[Na+]` [SLS 0.1%, sodium lauryl sulfate], which “ΔE (coloration versus reference tile)” value is on record?
**A.** 0.5

From patent US6479044B1, “Antibacterial solution” (Colgate-Palmolive Company, priority 2001, dated 2002)
